# Assay results taken from patent US11535623B2, “Cryptate compounds” (Australian Nuclear Science and Technology Organisation, priority 2011, dated 2022).
# Assays:
# [1] = Clearance from the kidneys after administration to mice; type: in vivo, BALB/c mice; conditions: administered to balb/s mice; Cu complex
# From the text: For example, the functional group of R^5 may be hydrophobic or may be hydrophilic. Having a hydrophobic entity will encourage clearance of a compound of the present invention that is complexed with a metal ion or metal ion radionuclide through the liver, while a hydrophilic entity will predominantly clear through the kidney.
# [2] = 64Cu radiolabelling at room temperature; kinetically inert complexes; cited from earlier work
SMILES,clearance / retention in the kidneys [1],stability of 64Cu complex to excess EDTA challenge [2]
C1CNCC2CNCCNCC(CN1)CNCCNC2.[Cu+2] [Cu-sar],retained for a relatively longer period of time in the kidneys,–
NC12CNCCNCC(N)(CNCCNC1)CNCCNC2.[Cu+2] [Cu-diamsar],rapidly cleared from the kidneys,–
"Nc1ccc(CNC23CNCCNCC(N)(CNCCNC2)CNCCNC3)cc1 [Sarar, 1-N-(4-aminobenzyl)-3,6,10,13,16,19-hexaazabicyclo[6.6.6]eicosane-1,8-diamine]",–,stable to excess EDTA challenge
